Read-outs that look alike come from different tables or passages of the source.
Tests used:
[1] = tested on: Glutenin 30-40 kDa; assay: Reductant specificity of glutenins, mBBr/SDS-PAGE; assay type: biochemical, Triticum durum
Experimental: (§1) For isolation of insoluble storage proteins, semolina (0.2 g) was extracted sequentially with 1 ml of the following solutions for the indicated times at 25° C.: (1) 50 mM Tris-HCl, pH 7.5 (20 min); (2) 70% ethanol (2 hr); and (3) 0.1 M acetic acid (2 hr). During extraction, samples were placed on an electrical rotator and, in addition, occasionally agitated with a vortex mixer. After extraction with each solvent, samples were centrifuged (12,000 rpm for 5 min) in an Eppendorf microfuge and, supernatant fractions were saved for analysis. In between each extraction, pellets were washed with 1 ml of water, collected by centrifugation as before and the supernatant wash fractions were discarded. By convention, the fractions are designated: (1) albumin/globulin; (2) gliadin; and (3) glutenin.
(§2) Reactions were carried out in 100 mM Tris-HCl buffer, pH 7.9. As indicated, 0.7 μg NTR and 1 μg thioredoxin (both from E. coli unless specified otherwise) were added to 70 μl of this buffer containing 1 mM NADPH and 10 μg of target protein.
(§3) SDS-polyacrylamide electrophoresis of the mBBr-derivatized samples was performed in 15% gels at pH 8.5 as described by Laemmli, U. K. (1970), Nature 227:680-685. Gels of 1.5 mm thickness were developed for 16 hr. at a constant current of 9 mA.
(§4) The Polaroid negatives of fluorescent gels and prints of wet protein stained gels were scanned with a laser densitometer (Pharmacia-LKB UltroScan XL). Fluorescence was quantified by evaluating peak areas after integration with GelScan XL software.

[2] = tested on: Glutenin 60-110 kDa; assay: Reductant specificity of glutenins, mBBr/SDS-PAGE; assay type: biochemical, Triticum durum
Experimental: as §1, §2, §3, §4

[3] = tested on: dogs sensitized to cow's milk; assay: Skin tests, ED50 and relative allergenicity (Example 44); assay type: in vivo, dog; settings: all dogs tested
Experimental: Reduction and Blocking of Protein Disutfide Bond. […] Following gel filtration with a Sephadex G-25 column (Amersham Pharmacia) to remove reductants, the reduced protein (less than 0.25 mg/ml) was incubated either without addition or with 10 mM oxidized glutathione (GSSG) or 10 mM cystamine for 3 days on ice. The mixtures were then subjected to a second gel filtration on a Sephadex G-25 column to remove excess GSSG and cystamine. If necessary, the resultant preparations were concentrated by ultrafiltration with Centricon YM-3 filter (Millipore). Heat treatment of NTS-reduced BLG was carried out for 1 hour at 55° C. after reduction at 4° C. overnight. Raw cow's milk (47 mg protein/ml) was reduced with 50 mM DTT and blocked with cystamine and GSSG as described above for BLG. Heated milk was prepared by incubation for 1 hour at 55° C. and gel filtration with A Sephadex G-25 column.
Skin Tests. The background of the dog colony, immunization schedule and procedure for skin testing have been previously described in Examples 36-39 and also in del Val et al., 1999, Buchanan et al., 1997, Ermel et al., 1997, Frick and Brooks, 1983, herein incorporated by reference. Here, 3 litters of the 7th generation designated 7FA, 7FB and 7FC were immunized with commercial preparations (Bayer) of cow's milk, soybean and other food extracts (wheat or barley and walnut, Brazil nut and peanut) and also ragweed pollen. BLG samples for testing were prepared in half-log dilutions with PBS; 100 μL of each dilution was injected intradermally on the dog's abdomen.
Estimation of Relative Allergenicity. Wheal area of each spot was plotted by the Lineweaver-Burk double-reciprocal plot to obtain the maximum wheal area. The log of the dose of BLG that effects a half-maximum of wheal area with the control sample, termed Effective Dose 50 (ED50), was calculated and used for statistical analysis. For simplification, ratio of the reciprocal of ED50 to that of the control sample is presented below as relative allergenicity.

[4] = tested on: allergic dogs; assay: Skin tests with giant ragweed pollen extract; assay type: in vivo, dog
Experimental: Reduction of pollen proteins by the thioredoxin system. Giant ragweed allergen extract, purchased from Bayer Inc., was analyzed for protein by the Bradford assay using bovine γ-globulin as standard (Wong, J. H. et al. (1995) “Thioredoxin and seed proteins” Methods Enzymol 252:228-240). […] The extent of reduction was determined by the SDS-PAGE/monobromobimane procedure as previously described above and also as described by Wong et al. (Ibid.). Gels were visualized under U.V.
Skin tests. Procedures to measure the type I hypersensitivity reaction by skin tests in allergic […] were substantially the same to those previously described above (see, Examples 36, 37 and 39). In brief, Evans blue dye 0.5% (0.2 ml/kg) was injected intravenously 5 minutes prior to skin testing. Aliquots of 0.1 ml of pollen allergen extract were injected intradermally on ventral abdominal skin in half-log dilutions. Skin tests were read blindly by the same experienced blinded observer scoring two perpendicular diameters for each blue spot. Appropriate negative controls (diluted in PBS) were included for each animal tested.
Data analysis. The statistical significance of the skin test results showing the thioxedoxin-linked mitigation of pollen allergens was determined by paired one-tailed, t-tests. […] The t-tests were completed for each dilution series (0.07 to 219 ng allergen) at 0.05 level of significance on all sensitive dogs (df≅8).

[5] = tested on: trypsin; assay: Trypsin proteolysis of purified milk allergens; assay type: biochemical; settings: 10 μg NTS reduced protein, 2 μg trypsin
Experimental: The analysis of the reduction was done using the mBBr/SDS-PAGE techniques. Further in this study, when 10 μg of an NTS reduced purified milk allergen protein, β-lactoglobulin (Sigma Chemical Co.), was treated with 2 μg of trypsin, proteolysis was 100% as compared with only 50% for the identically trypsin treated oxidized β-lactoglobulin. […] However, 10 μg of purified α-lactalbumin reduced by the NTS was proteolyzed 80% by trypsin. Also 10 μg of α-lactalbumin reduced by 0.8 μg of thioredoxin and 0.5 mM DTT was 100% proteolyzed by 2 μg of trypsin.

## N[C@@H](CCC(=O)N[C@@H](CS)C(=O)NCC(=O)O)C(=O)O [Glutathione, glutathione, reference compound]
[1]
  Glutenin, % Relative Reduction, 30-40 kDa: 29%
[2]
  Glutenin, % Relative Reduction, 60-110 kDa: 31%

## NTS-reduced & heated: BLG heated for 1 hour at 55° C. following NTS-reduction at 4° C. overnight
[3]
  times less allergenic than native (control) BLG, from ED50: about 5 times

## NTS/CYM: BLG treated with cystamine following NTS-reduction
[3]
  times less allergenic than native (control) BLG, from ED50: about 2.5 times

## NTS/GSSG: BLG treated with GSSG following NTS-reduction
[3]
  times less allergenic than native (control) BLG, from ED50: about 2.5 times

## Thioredoxin: E. coli thioredoxin reduced by NADPH and NTR
[1]; thioredoxin (NTS) = 100
  Glutenin, % Relative Reduction, 30-40 kDa: 100%
[2]; thioredoxin (NTS) = 100
  Glutenin, % Relative Reduction, 60-110 kDa: 100%
[4]; Allergen 0.07 ng
  Mitigation of skin test response: Not Signiticant
[4]; Allergen 0.22 ng
  Mitigation of skin test response: Not Significant
[4]; Allergen 0.66 ng
  Mitigation of skin test response: Significant
[4]; Allergen 2.2 ng
  Mitigation of skin test response: Significant
[4]; Allergen 6.6 ng
  Mitigation of skin test response: Significant
[4]; Allergen 22 ng
  Mitigation of skin test response: Significant
[4]; Allergen 66 ng
  Mitigation of skin test response: Significant
[4]; Allergen 219 ng, paired one tail t test, P 0.05
  Mitigation of skin test response: Not Significant

B1: Glutaredoxin: E. coli glutaredoxin with NADPH, reduced glutathione and glutathione reductase (NGS) (protein, UniProt P68688 1-85, looked up)
Glutaredoxin 1: MQTVIFGRSGCPYCVRAKDLAEKLSNERDDFQYQYVDIRAEGITKEDLQQKAGKPVETVPQIFVDQQHIGGYTDFAAWVKENLDA
modifications: with NADPH, glutathione, glutathione reductase
[1]; thioredoxin (NTS) = 100
  Glutenin, % Relative Reduction, 30-40 kDa: 40%
[2]; thioredoxin (NTS) = 100
  Glutenin, % Relative Reduction, 60-110 kDa: 50%

B2: α-lactalbumin: purified milk allergen (Sigma) (protein, UniProt P00711 20-142, looked up)
Alpha-lactalbumin: EQLTKCEVFRELKDLKGYGGVSLPEWVCTTFHTSGYDTQAIVQNNDSTEYGLFQINNKIWCKDDQNPHSSNICNISCDKFLDDDLTDDIMCVKKILDKVGINYWLAHKALCSEKLDQWLCEKL
[5]
  proteolysis by trypsin: 80%
